What all share (format): biochemical
The target in assay [1] is T1, IKKβ (Homo sapiens, UniProt O14920).
T1 sequence (O14920 1-756): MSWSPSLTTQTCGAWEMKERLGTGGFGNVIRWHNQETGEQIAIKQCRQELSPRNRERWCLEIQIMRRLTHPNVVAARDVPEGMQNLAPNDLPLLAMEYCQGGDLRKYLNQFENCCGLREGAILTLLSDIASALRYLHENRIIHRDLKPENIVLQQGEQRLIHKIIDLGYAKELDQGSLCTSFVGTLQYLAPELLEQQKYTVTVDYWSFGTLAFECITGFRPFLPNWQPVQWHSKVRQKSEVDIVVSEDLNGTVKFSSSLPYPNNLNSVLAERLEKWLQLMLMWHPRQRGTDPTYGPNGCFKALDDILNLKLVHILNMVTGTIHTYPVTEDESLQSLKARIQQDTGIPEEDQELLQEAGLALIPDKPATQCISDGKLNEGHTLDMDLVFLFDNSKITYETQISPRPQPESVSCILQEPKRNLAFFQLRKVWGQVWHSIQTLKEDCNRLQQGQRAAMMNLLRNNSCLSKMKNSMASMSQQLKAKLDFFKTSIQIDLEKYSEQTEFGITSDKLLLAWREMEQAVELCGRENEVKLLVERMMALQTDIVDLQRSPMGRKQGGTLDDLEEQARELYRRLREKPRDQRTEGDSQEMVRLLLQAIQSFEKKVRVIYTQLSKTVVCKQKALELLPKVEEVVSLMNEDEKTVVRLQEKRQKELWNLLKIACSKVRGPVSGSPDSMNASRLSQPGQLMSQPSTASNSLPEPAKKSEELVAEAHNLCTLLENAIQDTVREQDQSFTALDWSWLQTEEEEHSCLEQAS
Nature of the assay: DELFIA kinase assay, IKKβ. As to conditions: read-out: Ki Values IKKβ. As to the method: IKKα and IKKβ inhibitory activity were determined using a dissociation-enhanced ligand fluorescent immunoassay (DELFIA) based on the protocol of HTScan™ IKKβ Kinase Assay (Cell Signaling Technology, Danvers, MA, USA) as described in [24].

Assay [2] addresses T2, Mer(h) (Homo sapiens, UniProt Q12866).
T2 sequence (Q12866 21-999): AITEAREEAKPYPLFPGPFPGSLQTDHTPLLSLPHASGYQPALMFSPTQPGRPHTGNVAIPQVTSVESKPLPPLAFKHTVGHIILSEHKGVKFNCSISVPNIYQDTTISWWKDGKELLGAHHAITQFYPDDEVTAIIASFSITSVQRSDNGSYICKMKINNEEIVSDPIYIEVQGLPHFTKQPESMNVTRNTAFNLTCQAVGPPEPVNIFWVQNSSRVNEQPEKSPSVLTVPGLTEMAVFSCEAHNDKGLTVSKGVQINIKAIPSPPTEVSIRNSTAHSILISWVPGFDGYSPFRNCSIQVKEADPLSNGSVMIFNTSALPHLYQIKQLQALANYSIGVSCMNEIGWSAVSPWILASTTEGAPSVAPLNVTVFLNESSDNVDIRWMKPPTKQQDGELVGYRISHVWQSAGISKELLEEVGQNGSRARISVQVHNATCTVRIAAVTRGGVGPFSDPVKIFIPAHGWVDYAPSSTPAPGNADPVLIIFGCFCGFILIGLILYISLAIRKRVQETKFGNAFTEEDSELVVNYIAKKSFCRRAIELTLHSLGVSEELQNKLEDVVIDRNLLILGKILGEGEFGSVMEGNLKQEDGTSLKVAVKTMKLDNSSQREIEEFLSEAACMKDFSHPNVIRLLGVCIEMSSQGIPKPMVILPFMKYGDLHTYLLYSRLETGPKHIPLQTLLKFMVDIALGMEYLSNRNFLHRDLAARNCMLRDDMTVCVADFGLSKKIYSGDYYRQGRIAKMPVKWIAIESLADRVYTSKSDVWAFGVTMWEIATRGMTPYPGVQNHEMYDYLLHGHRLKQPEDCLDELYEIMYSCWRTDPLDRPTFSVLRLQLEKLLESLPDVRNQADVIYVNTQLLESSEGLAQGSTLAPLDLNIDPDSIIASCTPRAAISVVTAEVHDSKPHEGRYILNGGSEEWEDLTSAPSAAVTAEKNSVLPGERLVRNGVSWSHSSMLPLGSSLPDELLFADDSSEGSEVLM
Description: kinase panel. The source says:
(§1) We profiled three compounds from the series across the kinome (Table S1).
(§2) Ta b l e S1. The % inhibition of compounds 4, 5r [SU1261], and 6g [SU1349] against a
(§3) panel of kinase enzymes. We proϐiled three compounds from the series across 231
(§4) kinases. For SU1349, given its structural similarity with SU1261, we selected 98 from the
(§5) Tested kinase % inhibiƟon

For assay [3], the target named is T3, TBK1(h) (Homo sapiens, UniProt Q9UHD2).
T3 sequence (Q9UHD2 1-729): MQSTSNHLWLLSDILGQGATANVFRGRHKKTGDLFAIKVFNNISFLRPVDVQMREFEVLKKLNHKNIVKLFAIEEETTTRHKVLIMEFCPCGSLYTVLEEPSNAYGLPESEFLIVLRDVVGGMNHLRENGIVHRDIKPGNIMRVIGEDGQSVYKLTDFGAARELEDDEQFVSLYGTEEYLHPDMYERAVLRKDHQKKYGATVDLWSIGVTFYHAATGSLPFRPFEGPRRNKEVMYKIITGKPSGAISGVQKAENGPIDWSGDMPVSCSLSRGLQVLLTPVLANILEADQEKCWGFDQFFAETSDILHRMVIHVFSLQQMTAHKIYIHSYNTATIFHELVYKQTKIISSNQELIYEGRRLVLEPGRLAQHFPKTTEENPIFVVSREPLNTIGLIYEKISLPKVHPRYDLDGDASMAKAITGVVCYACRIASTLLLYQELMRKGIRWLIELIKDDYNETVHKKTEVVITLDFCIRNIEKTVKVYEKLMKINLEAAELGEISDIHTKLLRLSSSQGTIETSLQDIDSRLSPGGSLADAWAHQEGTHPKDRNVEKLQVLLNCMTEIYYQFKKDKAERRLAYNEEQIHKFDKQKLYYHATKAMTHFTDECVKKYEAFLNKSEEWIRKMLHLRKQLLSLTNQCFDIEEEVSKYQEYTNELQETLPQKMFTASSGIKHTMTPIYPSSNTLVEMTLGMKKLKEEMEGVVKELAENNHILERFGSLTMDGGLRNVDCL
Description: kinase panel.
From the text: as §1, §2, §3, §4, §5

Consider three compounds from paper PMC11314561, “Design and Synthesis of Novel Aminoindazole-pyrrolo[2,3-b]pyridine Inhibitors of IKKα That Selectively Perturb Cellular Non-Canonical NF-κB Signalling” (Molecules, 2024).

Consider `Nc1n[nH]c2ccc(-c3ccnc4[nH]c(-c5ccnc(OCc6ccccc6)c5)cc34)cc12` [Compound 6g [SU1349]], for which the inhibitory constant (Ki) in assay [1] is 3350 nM. Further, the results for the inhibition at 1 µM in assay [2] and in assay [3] were 12% and 2%, respectively.
For `Nc1n[nH]c2ccc(-c3ccnc4[nH]c(-c5cccc(OCc6ccccc6)c5)cc34)cc12` [Compound 5r [SU1261]], in that order: 680 nM, 27% and 22%.
On to `Nc1n[nH]c2ccc(-c3ccnc4[nH]c(-c5ccccc5)cc34)cc12` [Compound 4], for which the inhibition constant (Ki) in assay [1] turned out to be 15 nM. The inhibition at 1 µM worked out at 88% in assay [2] and 81% in assay [3].
